Columns and labels:
[1] = Metabolic stability in dog hepatocytes; format: in vitro ADME; conditions: pooled cryopreserved hepatocytes, dog hepatocytes
Protocol: (§1) To evaluate the metabolic stability of DWP16001 in human, dog, monkey, mouse, and rat hepatocytes, pooled cryopreserved hepatocytes were carefully thawed in recovery medium and resuspended in incubation medium (Krebs–Henseleit buffer for mouse, rat, and human; William’s E media for dog and monkey) to 0.5 × 10^6 cells/mL for mouse, 0.67 × 10^6 cells/mL for rat, and 1.0 × 10^6 cells/mL for dog, monkey, and human in accordance with the manufacturer’s protocols. Then, 60-μL aliquots of these hepatocyte suspensions and an equal volume of 2 μM DWP16001 in incubation medium were mixed in 96-well plates and incubated in triplicate for 0, 30, 60, 90, 120, 180, or 240 min in a CO2 incubator at 37 °C. Reactions were stopped by addition of 120 µL of ice-cold acetonitrile to each well and the cell suspension was sonicated for 5 min at 4 °C, followed by centrifugation at 15,000× g for 10 min at 4 °C after 5 min of sonication. 80-µL aliquots of the supernatants were then vortex-mixed with 20 μL of ice-cold ketoconazole (an internal standard) in acetonitrile and analyzed by LC–tandem mass spectrometry (LC-MS/MS). The peak area ratios of DWP16001 versus internal standard at each sampling point were used for the subsequent calculation. Elimination parameters, including half-life (t1/2), intrinsic clearance (Clint), and hepatic clearance (Clhep) of DWP16001 in mouse, rat, dog, monkey, and human were calculated by the following equations [19]. (1) t1/2min=ln2/−k elimination slope (2) ClintmL/min/kg=ln2/t1/2×mL incubation/hepatocytes 10^6 cells×B×10^6 cells/g liver×A g liver/kg BW (3) ClhepmL/min/kg=Qh×Clint/Qh+Clint (4) Hepatic extraction ratio = Clhep/Qh
(§2) Here, A has values of 87.5, 40, 32, 32, and 25.7; B has values of 135, 117, 215, 120, and 139; Qh (representing hepatic blood flow) has values of 90, 55.2, 30.9, 43.4, and 20.7 mL/min/kg, for mouse, rat, dog, monkey, and human, respectively. Hepatic extraction ratio values of ≤ 0.25, 0.25–0.75, and ≥ 0.75 were regarded as low, moderate, and high, respectively.

dog hepatocytes = assay: Metabolic stability in dog hepatocytes; format: in vitro ADME
Protocol: as §1, §2

[2] = Metabolic stability in monkey hepatocytes; format: in vitro ADME; conditions: pooled cryopreserved hepatocytes, monkey hepatocytes
Protocol: as §1, §2

monkey hepatocytes = assay: Metabolic stability in monkey hepatocytes; format: in vitro ADME
Protocol: as §1, §2

human liver microsomes = assay: Enzyme kinetics of metabolite formation in human liver microsomes; format: in vitro ADME
Protocol: To calculate the enzyme kinetic parameters for the M1 and M2 formation from DWP16001, DWP16001 (final concentrations, 1–200 μM) was incubated with NADPH-generating system, pooled human liver microsomes (0.25 mg/mL), or human cDNA-expressed CYP3A4 or CYP2C19 supersomes (10 pmol) at 37 °C for 30 min in triplicate. Reactions were stopped by addition of 400 μL of ice-cold ketoconazole (200 ng/mL) in acetonitrile. Following vortex-mixing and centrifugation (15,000× g, 8 min, 4 °C), 75 μL aliquots of the supernatant were diluted with 75 µL of 30% acetonitrile; 5 μL aliquots were injected into an LC−MS/MS system.
Apparent kinetic parameters (Km, Vmax and n) for the formation of M1, M2, and M3 from DWP16001 by human liver microsomes, CYP3A4, or CYP2C19 were calculated as follows: the unweighted formation rates of M1, M2, and M3 over a range of DWP16001 concentrations were fitted to the Hill equation model [V = Vmax × S^n/(Km^n + S^n)] or the single enzyme model [V = Vmax × S/(Km + S)] using Enzyme Kinetics software (version 1.1 SPSS Inc., Chicago, IL, USA). In the above equations, V means the reaction velocity of the formation of M1, M2, and M3 at given concentration [S] of DWP16001, Vmax means the maximum reaction velocity, n means the Hill constant, and Km means the DWP16001 concentration at which the reaction velocity is 50% of Vmax.

UGT1A9 = molecular target: T1, UGT1A9 (Homo sapiens, UniProt O60656); assay: UGT screening, cDNA-expressed UGT1A9; format: in vitro ADME
T1 construct: purchased Corning Life Sciences
T1 sequence (O60656 26-530): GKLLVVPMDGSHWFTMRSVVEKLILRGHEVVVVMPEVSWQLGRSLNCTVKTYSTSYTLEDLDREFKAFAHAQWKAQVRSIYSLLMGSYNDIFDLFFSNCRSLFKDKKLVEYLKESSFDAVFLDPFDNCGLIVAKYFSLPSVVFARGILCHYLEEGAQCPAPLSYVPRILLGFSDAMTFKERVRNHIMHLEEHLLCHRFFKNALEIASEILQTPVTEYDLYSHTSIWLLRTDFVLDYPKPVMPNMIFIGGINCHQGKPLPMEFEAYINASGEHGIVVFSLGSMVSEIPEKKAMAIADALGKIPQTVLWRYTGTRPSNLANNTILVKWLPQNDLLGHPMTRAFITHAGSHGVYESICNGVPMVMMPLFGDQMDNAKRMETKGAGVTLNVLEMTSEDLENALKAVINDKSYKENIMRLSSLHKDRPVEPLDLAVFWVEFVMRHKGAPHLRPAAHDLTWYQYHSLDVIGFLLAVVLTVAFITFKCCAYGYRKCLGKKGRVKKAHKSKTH
Protocol: To screen for UGT enzymes responsible for glucuronidation of DWP16001, 100 μL of reaction mixtures containing 13 human cDNA-expressed UGT enzymes (1A1, 1A3, 1A4, 1A6, 1A7, 1A8, 1A9, 1A10, 2B4, 2B7, 2B10, 2B15, and 2B17) at 0.1 mg protein/mL, 5 mM UDPGA, 0.025 mg/mL alamethicin, and 25 μM DWP16001 or M1 in 50 mM Tris buffer (pH 7.4) were incubated at 37 °C for 30 min in triplicate. Reactions were stopped by adding 100 μL of ketoconazole (internal standard, 200 ng/mL) in acetonitrile, followed by vortex-mixing and centrifugation (15,000× g, 8 min, 4 °C). The supernatant (75 μL) was diluted with equal volume of 30% acetonitrile and aliquots (5 μL) were injected into an LC-MS/MS system.

SGLT2 = system: SGLT2; design: method as in PMID 32183468; conditions: read-out: IC50 (SGLT2 inhibition); cited from earlier work

CLint scaled at 1 μM [1]: 42.7 mL/min/kg
half-life at 1 μM ([1]; 37 °C, 0-240 min): 224 min
Hepatic extraction ratio class (dog hepatocytes; dog): moderate (0.25–0.75)
Clhep (dog hepatocytes; dog hepatocytes, well-stirred model): 17.9 mL/min/kg
CLint scaled at 1 μM [2]: 32.3 mL/min/kg
half-life at 1 μM ([2]; 37 °C, 0-240 min): 165 min
Hepatic extraction ratio class (monkey hepatocytes; monkey): moderate (0.25–0.75)
Hepatic extraction ratio (monkey hepatocytes; monkey hepatocytes): 0.43
Clhep (monkey hepatocytes; monkey hepatocytes, well-stirred model): 18.5 mL/min/kg
M1 Formation Vmax (human liver microsomes; HLM): 980.3 pmol/min/mg protein
M1 Formation n (hill coefficient) (human liver microsomes; HLM): 0.9176
M2 Formation Vmax (human liver microsomes; HLM): 82.8 pmol/min/mg protein
M2 Formation n (hill coefficient) (human liver microsomes; HLM): 0.9773
M1 Formation Mode (human liver microsomes; HLM, kinetic model fitted): Hill
M2 Formation Mode (human liver microsomes; HLM, kinetic model fitted): Hill
M3 formation from DWP16001 in enzyme kinetic analysis (human liver microsomes; human liver microsomes): not detected
Substrate of UGT1A9 (UGT1A9): substrate
Compound: OC[C@H]1O[C@@H](c2cc(Cc3ccc(C4CC4)cc3)c(Cl)c3c2CCO3)[C@H](O)[C@@H](O)[C@@H]1O [DWP16001, (2S,3R,4R,5S,6R)-2-(7-chloro-6-(4-cyclopropylbenzyl)-2,3-dihydrobenzofuran-4-yl)-6-(hydroxymethyl)tetrahydro-2H-pyran-3,4,5-triol]
IC50 (SGLT2): 0.8 ± 0.3 nM

Source: paper PMC7558535, “In Vitro Metabolism of DWP16001, a Novel Sodium-Glucose Cotransporter 2 Inhibitor, in Human and Animal Hepatocytes” (Pharmaceutics, 2020)
